From ChEMBL document CHEMBL4411258, “Novel natural compounds from endophytic fungi with anticancer activity” (Eur J Med Chem, 2018)
pIC50: −log10 of the molar value. Values after ≈ are worked out from the molar mass of the structure shown.

Legend:
[1] = Cytotoxicity against human KATO III cells after 72 hrs by MTT assay; type: functional, cell-based
MCF7 [2] = experiment: Cytotoxicity against human MCF7 cells by MTT assay; type: functional, cell-based
A549 [3] = experiment: Cytotoxicity against human A549 cells by MTT assay; type: functional, cell-based
HeLa = experiment: Cytotoxicity against human HeLa cells by MTS assay; type: functional, cell-based
A549 [4] = experiment: Cytotoxicity against human A549 cells by MTS assay; type: functional, cell-based
L02 = experiment: Cytotoxicity against human L02 cells by MTS assay; type: cell-based
Huh-7 = experiment: Cytotoxicity against human HuH7 cells by MTS assay; type: functional, cell-based
MCF7 [5] = experiment: Cytotoxicity against human MCF7 cells by MTS assay; type: functional, cell-based
[6] = Cytotoxicity against mouse LM3 cells by MTS assay; type: functional, cell-based
NCI-H446 = experiment: Cytotoxicity against human NCI-H446 cells by MTS assay; type: functional, cell-based
SW1990 = experiment: Cytotoxicity against human SW1990 cells by MTS assay; type: functional, cell-based
L5178Y = experiment: Cytotoxicity against mouse L5178Y cells by MTT assay; type: functional, cell-based
HL-60 = experiment: Cytotoxicity against human HL60 cells by trypan blue staining based assay; type: functional, cell-based
SH-SY5Y [7] = experiment: Cytotoxicity against human SH-SY5Y cells by MTT assay; type: functional, cell-based
PC-3 [8] = experiment: Cytotoxicity against human PC3 cells by MTT assay; type: functional, cell-based
SK-OV-3 = experiment: Cytotoxicity against human SKOV3 cells after 48 hrs by neutral red dye based assay; type: functional, cell-based; conditions: SK-OV-3, 48 h
BT-549 = experiment: Cytotoxicity against human BT549 cells after 48 hrs by neutral red dye based assay; type: functional, cell-based; conditions: BT-549, 48 h
MCF7 [9] = experiment: Cytotoxicity against human MCF7 cells after 48 hrs by MTT assay; type: functional, cell-based; conditions: Homo sapiens, MCF7, 48 h; read-out: IC50
PC-3 [10] = experiment: Cytotoxicity against human PC3 cells after 48 hrs by MTT assay; type: functional, cell-based; conditions: PC-3, 48 h
A549 [11] = experiment: Cytotoxicity against human A549 cells after 48 hrs by MTT assay; type: functional, cell-based; conditions: Homo sapiens, A549, 48 h; read-out: IC50
SH-SY5Y [12] = experiment: Cytotoxicity against human SH-SY5Y cells after 48 hrs by MTT assay; type: functional, cell-based
NB-4 = experiment: Cytotoxicity against human NB4 cells after 48 hrs by MTT assay; type: functional, cell-based; conditions: NB-4, 48 h
HepG2 [13] = experiment: Cytotoxicity against human HepG2 cells after 48 hrs by sulforhodamine B assay; type: functional, cell-based; conditions: Homo sapiens, HepG2, 48 h
MCF7 [14] = experiment: Cytotoxicity against human MCF7 cells after 48 hrs by sulforhodamine B assay; type: functional, cell-based; conditions: Homo sapiens, MCF7, 48 h
NCI-H460 = experiment: Cytotoxicity against human NCI-H460 cells after 48 hrs by sulforhodamine B assay; type: functional, cell-based; conditions: Homo sapiens, NCI-H460, 48 h
SF-268 = experiment: Cytotoxicity against human SF268 cells after 48 hrs by sulforhodamine B assay; type: functional, cell-based; conditions: Homo sapiens, SF-268, 48 h
[15] = Inhibition of RANKL-induced NFkappaB (unknown origin) activation expressed in mouse RAW264.7 cells preincubated for 1 hr followed by RANKL stimulation and measured after 6 hrs by luciferase reporter gene based assay; type: cell-based
MCF7 [16] = experiment: Cytotoxicity against human MCF7 cells after 72 hrs by MTT assay; type: functional, cell-based; conditions: MCF7, 72 h
Vero = experiment: Cytotoxicity against African green monkey Vero cells by resazurin microplate assay; type: cell-based; conditions: Chlorocebus sabaeus
NCI-H187 = experiment: Cytotoxicity against human NCI-H187 cells by resazurin microplate assay; type: functional, cell-based
HepG2 [17] = experiment: Cytotoxicity against human HepG2 cells by MTT assay; type: functional, cell-based

Structure (SMILES): COc1cc(O)c2c(=O)cc(C)oc2c1[C@@H](C[C@@H](OC)C(=O)O)OC
- pIC50 [1]: 4.77

Structure (SMILES): C[C@@H]1CC2=C(CO1)C(=O)[C@@](C)(O)[C@@H](O)C2
- pIC50 (MCF7 [2]): 5.60
- pIC50 (A549 [3]): 4.38

Structure (SMILES): O=C1CC[C@@H](c2ccc(O)c3c2C(=O)CC[C@H]3O)c2cccc(O)c21
- pIC50 (HeLa): 4.70 to 6.00
- pIC50 (A549 [4]): 4.70 to 6.00
- pIC50 (L02): 4.70 to 6.00
- pIC50 (Huh-7): 4.70 to 6.00
- pIC50 (MCF7 [5]): 4.70 to 6.00
- pIC50 [6]: 4.70 to 6.00
- pIC50 (NCI-H446): 4.70 to 6.00
- pIC50 (SW1990): 4.70 to 6.00

Structure (SMILES): COc1cc(O)c2c(c1)C(=O)[C@@H]1[C@H](C[C@@H](O)[C@@](C)(O)[C@@H]1O)C2=O
- pIC50 (L5178Y): 5.47

Structure (SMILES): C=C(CO)C(=O)CCC(C)C1=CC[C@@]2(C)OC3=C(C[C@@H]12)C(=O)[C@@H](O)CC3 (stereo not given in full)
- pIC50 (HL-60): 5.32

Structure (SMILES): COC(=O)[C@@H]1c2c(oc3cc(C)cc(OC)c3c2=O)C=C[C@H]1O
- pIC50 (MCF7 [2]): 5.08
- pIC50 (SH-SY5Y [7]): 5.11
- pIC50 (PC-3 [8]): 5.16
- pIC50 (A549 [3]): 5.09

Structure (SMILES): C=C(CC[C@@H](C)[C@H]1CC=C2C3=C([C@@H](O)[C@H](OC(C)=O)[C@@]21C)[C@@]1(C)C[C@@H](O)[C@H](OC(C)=O)C(C)(C)[C@@H]1CC3)C(C)C
- IC50 (SK-OV-3): 0.16 µg/mL
- IC50 (BT-549): 1.97 µg/mL

Structure (SMILES): O=C1C[C@@H](O)[C@]2(Oc3cccc4c(O)ccc(c34)O2)c2c(O)ccc(O)c21
- pIC50 (HL-60): 5.62

Structure (SMILES): CN1C(=O)[C@]23O[C@]4(O)[C@@H](O)C(=O)N5C(C)(C)[C@H](Cc6cccc1c62)[C@H]3[C@@]54O
- pIC50 (MCF7 [9]): 5.38 to 5.92
- pIC50 (PC-3 [10]): 5.38 to 5.92
- pIC50 (A549 [11]): 5.38 to 5.92
- pIC50 (SH-SY5Y [12]): 5.38 to 5.92
- pIC50 (NB-4): 5.38 to 5.92

Structure (SMILES): CC[C@H](C)C(=O)[C@@H](C)c1c(O)c2c(c3c1SCC(=O)N3)[C@@H](O)[C@@H]1[C@@]3(C)CC[C@H](C(C)(C)O)O[C@@H]3CC[C@@]1(C)O2
- pIC50 (HepG2 [13]): 4.37 to 5.19
- pIC50 (MCF7 [14]): 4.37 to 5.19
- pIC50 (NCI-H460): 4.37 to 5.19
- pIC50 (SF-268): 4.37 to 5.19

Structure (SMILES): Cc1cc(O)c(C(=O)c2c(C(=O)O)cc(O)c(O)c2O)c(O)c1
- pIC50 (HepG2 [13]): 4.22
- pIC50 (MCF7 [14]): 4.15

Structure (SMILES): Cc1cc2c(c3c1C(=O)Oc1c(C)c4c(c(O)c1O3)C(=O)OC4)CO2
- pIC50 (NCI-H446): 4.20

Structure (SMILES): COC(=O)c1cc(O)cc2oc3c(c(=O)c12)[C@@H](OC)O[C@H](C)C3
- pIC50 [15]: 4.34 to 4.52

Structure (SMILES): COc1cc(O)c2c(=O)cc(C)oc2c1[C@@H]1C[C@@H](OC)C(=O)O1
- pIC50 [1]: 4.63
- pIC50 (MCF7 [16]): 4.71

Structure (SMILES): CC[C@H](C)C(=O)[C@@H](C)C1=CC(=O)C2=C(O[C@]3(C)CC[C@H]4O[C@@H](C(C)(C)O)CC[C@]4(C)C3=C2)C1=O
- pIC50 (HepG2 [13]): 4.37 to 5.19
- pIC50 (MCF7 [14]): 4.37 to 5.19
- pIC50 (NCI-H460): 4.37 to 5.19
- pIC50 (SF-268): 4.37 to 5.19

Structure (SMILES): C/C=C/C(O)[C@@H]1OC(=O)[C@@]2(C)[C@@H]3CC[C@@H](C)C[C@H]3C=C[C@@H]12 (stereo not given in full)
- IC50 (Vero): 24.2 µg/mL (≈ 83.5 µM)
- IC50 (NCI-H187): 30.5 µg/mL (≈ 105 µM)

Structure (SMILES): COC(=O)[C@@H](C[C@@H](OC)c1c(OC)cc(O)c2c(=O)cc(C)oc12)OC
- pIC50 [1]: 4.67

Structure (SMILES): C[C@@H](N)C(=O)Nc1ccccc1C(=O)N[C@@H](O)CCS
- pIC50 (SK-OV-3): 6.10
- pIC50 (BT-549): 6.40

Structure (SMILES): CC(C)=CCc1cc2c3c(c1)N(C)C(=O)[C@]31O[C@]3(O)[C@@H](O)C(=O)N4C(C)(C)[C@H](C2)[C@H]1[C@@]43O
- pIC50 (MCF7 [9]): 5.38 to 5.92
- pIC50 (PC-3 [10]): 5.38 to 5.92
- pIC50 (A549 [11]): 5.38 to 5.92
- pIC50 (SH-SY5Y [12]): 5.38 to 5.92
- pIC50 (NB-4): 5.38 to 5.92

Structure (SMILES): O=C1CC[C@@H](c2ccc(O)c3c2[C@@H](O)CCC3=O)c2cccc(O)c21
- pIC50 (HeLa): 4.70 to 6.00
- pIC50 (A549 [4]): 4.70 to 6.00
- pIC50 (L02): 4.70 to 6.00
- pIC50 (Huh-7): 4.70 to 6.00
- pIC50 (MCF7 [5]): 4.70 to 6.00
- pIC50 [6]: 4.70 to 6.00
- pIC50 (NCI-H446): 4.70 to 6.00
- pIC50 (SW1990): 4.70 to 6.00

Structure (SMILES): C/C=C(\C)C(=O)[C@@H](C)c1cc(O)c2c(c1O)O[C@]1(C)CC[C@H]3O[C@@H](C(C)(C)O)CC[C@]3(C)[C@H]1C2=O
- pIC50 (HepG2 [13]): 4.37 to 5.19
- pIC50 (MCF7 [14]): 4.37 to 5.19
- pIC50 (NCI-H460): 4.37 to 5.19
- pIC50 (SF-268): 4.37 to 5.19

Structure (SMILES): COc1cc(O)c2c(c1)C=C([C@H](O)[C@H](O)C(Cl)Cl)OC2O (stereo not given in full)
- IC50 (MCF7 [2]): 17.8 µg/mL
- IC50 (HepG2 [17]): 39.6 µg/mL (≈ 117 µM)

Structure (SMILES): COc1cc(O)c2c(c1-c1c(OC)cc(O)c3c1C(=O)C1=C(C3=O)[C@H](O)[C@@H](OC(C)=O)[C@@](C)(O)[C@@H]1O)C(=O)C1=C(C2=O)[C@H](O)[C@@H](O)[C@@](C)(O)[C@@H]1O
- pIC50 (L5178Y): 4.98

Structure (SMILES): C[C@H]1[C@H](O)CCC(C)(C)[C@@]12CC=C(C(=O)O)CC2
- pIC50 [1]: 4.46
